# Test results reported in article PMC3161034 (BMC Cancer, 2011).
# Columns and labels:
# [1] = tested on: patients with solid tumors; test: Adverse events graded by CTCAE version 3.0, relatedness by investigator; type: in vivo, human; details: for Patients discontinuing treatment with the drug because of adverse events: all cohorts
# Method: Cohort enrollment could be expanded to ensure that at least 6 evaluable patients were enrolled or in the event of unresolved safety, pharmacokinetic, or other concerns. The overall sample size could be further increased if additional dose cohorts were considered justified based on the results from the dose-escalation portion of the study. For continuous endpoints, the mean, standard error or standard deviation (SD); median; 25th and 75th percentiles; and minimum and maximum were calculated. For discrete data, the frequency and percent distributions were calculated. No formal comparisons between cohorts were performed. The data were analyzed using SAS software version 8.2 (SAS Institute, Cary, NC). […] The safety analysis set included all patients who received at least 1 dose of study therapy.
# [2] = tested on: cytochrome P450 (CYP) 3A4; details: cited from earlier work
# [3] = tested on: patients with advanced NSCLC; details: cited from earlier work
# [4] = tested on: CYP1A2; details: cited from earlier work
# [5] = clinical; details: for Tmax: Median tmax
# Method: Plasma concentrations of motesanib were analyzed using a validated liquid chromatography/tandem mass spectrometry (LC-MS/MS) method with a lower limit of quantitation (LLOQ) of 0.2 ng/mL (Cedra Corp., Austin, TX).
# Pharmacokinetic parameter estimates were calculated according to standard noncompartmental methods using WinNonlin software (version 5.1.1; Pharsight Corporation, Mountain View, CA) and summarized by dose level. […] For the BID cohort, AUC0—24 values for motesanib were determined by 2 × AUC0—12. The terminal elimination rate constant (λZ) was determined by linear regression of the natural logarithms of plasma concentrations versus time during the terminal phase; the corresponding t1/2 was calculated.
# The GLSM were calculated by first obtaining the least squares means for the log-transformed Cmax values (logCmax) and AUC0—24 values (logAUC0—24) for weeks 3 and 2, and then converting these values back to the original scale. The ratio and 90% confidence interval (CI) of GLSM was calculated by first estimating the difference (and 90% CI) in the least squares means between weeks 3 and 2 for logCmax and logAUC0—24, and then converting the numbers back to their original scale.
# [6] = tested on: deoxycytidine deaminase; parameters: method as in PMID 16807468; details: cited from earlier work
# [7] = 56 patients who received erlotinib
smiles,measurement,setting,value
C#Cc1cccc(Nc2ncnc3cc(OCCOC)c(OCCOC)cc23)c1 [erlotinib],Erlotinib-related anorexia,[1]; [7],16 n
same,Erlotinib-related diarrhea,[1]; [7],35 n
same,Erlotinib-related fatigue,[1]; [7],14 n
same,Erlotinib-related nausea,[1]; [7],23 n
same,Erlotinib-related rash,[1]; [7],42 n
same,Erlotinib-related vomiting,[1]; [7],15 n
same,Patients discontinuing treatment with the drug because of adverse events,[1],7 n
same,Incidence of erlotinib-related skin rash,"[1]; present study, all patients",75%
same,Metabolism by CYP3A4,[2],metabolized at least in part
same,Progression-free survival,"[3]; phase 3, advanced NSCLC after failed first-line therapy",1.7 mo
same,Response rate,"[3]; phase 3, P = 0.006",6.2%
same,Overall survival,[3]; phase 3,9.2 mo
same,Metabolism by CYP1A2,[4],metabolized at least in part
same,"Mean t1/2, z","[5]; human, in vivo, 100 mg",12 to 19 h
same,half-life,"[5]; human, in vivo, 100 mg, Mean t1/2, z",17 to 33 h
same,Tmax,"[5]; human, in vivo, 100 mg",2 to 6 h
same,Median tmax,"[5]; human, in vivo, 150 mg",2 to 4 h
same,Tmax,"[5]; human, in vivo, 150 mg",1 to 3 h
same,Overall median tmax,"[5]; week 3, 100 mg erlotinib QD with gemcitabine and motesanib",2 h
"Nc1ccn([C@@H]2O[C@H](CO)[C@@H](O)C2(F)F)c(=O)n1 [gemcitabine, reference compound]",Patients discontinuing treatment with the drug because of adverse events,[1],8 n
same,Metabolism by deoxycytidine deaminase,[6],primarily metabolized
